Results as given in patent US20040198756A1, “Medicaments” (priority 2001, published 2004).
Counter-ions that a name gives are not always drawn.

Assay: MIC of test compounds against various organisms
Format: cell-based
Details: bound holds for all 11 organisms of the panel; read-out: MIC versus all these organisms
Method: The MIC (jig/ml) of test compounds against various organisms was determined:
S. aureus Oxford, S. aureus WCUH29, S. pneumoniae 1629, S. pneumoniae N1387, S. pneumoniae ERY 2, E. faecalis I, E. faecalis 7, H. influenzae Ql, H. influenzae NEMC1, M. catarrhalis 1502, E. coli 7623.

MIC [µg/mL] | SMILES
≤ 4 | COc1ccc2nccc(NC(=O)C3(O)CCN(C[C@H](O)c4ccc5c(n4)NC(=O)CS5)CC3)c2n1 (racemic) [Example 22, 4-Hydroxy-1-[2-(RS)-2-hydroxy-2-(3-oxo-3,4-dihydro-2H-pyrido[3,2-b][1,4]thiazin-6-yl)-ethyl]-piperidine-4-carboxylic acid (6-methoxy-[1,5]naphthyridin-4-yl)amide dihydrochloride]
≤ 4 | COc1ccc2nccc(NC(=O)C3(OC)CCN(C[C@H](O)c4ccc5c(n4)NC(=O)CS5)CC3)c2n1 (racemic) [Example 23, 4-Methoxy-1-[2-(RS)-2-hydroxy-2-(3-oxo-3,4-dihydro-2H-pyrido[3,2-b][1,4]-thiazin-6-yl)-ethyl]-piperidine-4-carboxylic acid (6-methoxy-[1,5]naphthyridinyl)amide dihydrochloride]
≤ 4 | COc1ccc2nccc(NC(=O)C3(OC)CCN(CC(O)c4ccc5c(c4)NC(=O)CS5)CC3)c2n1 (centres unmarked) [Example 16, 1-[2-R,S-Hydroxy-2-(3-oxo-3,4-dihydro-2H-benzo[1,4]thiazin-6-yl)-ethyl]-4-methoxy-piperidine-4-carboxylic acid (6-methoxy-[1,5]naphthyridin-4-yl)-amide dihydrochloride]
≤ 16 | COc1ccc2nccc(NC(=O)C3(N)CCN(CC(O)c4cc5c(cc4F)SCC(=O)N5)CC3)c2n1 (centres unmarked) [Example 11, 4-Amino-1-[2-(7-fluoro-3-oxo-3,4-dihydro-2H-benzo[1,4]thiazin-6-yl)-2-R,S-hydroxy-ethyl]-piperidine-4-carboxylic acid (6-methoxy-[1,5]naphthyridin-4-yl)-amide dioxalate]
≤ 16 | COc1ccc2nccc(NC(=O)C3(OC)CCN(C[C@@H](O)c4ccc5c(c4)OCCO5)CC3)c2n1 [Example 17, 1-[2-(2,3-Dihydro-benzo[1,4]dioxin-6-yl)-2-R,S-hydroxy-ethyl]-4-methoxy-piperidine-4-carboxylic acid (6-methoxy-[1,5]naphthyridin-4-yl)-amide dihydrochloride]
≤ 4 | COc1cc(F)c2nccc(NC(=O)C3(O)CCN(CCc4cc5c(cn4)OCCO5)CC3)c2c1 [Example 26, 1-[2-(2,3-Dihydro-[1,4]dioxino[2,3-c]pyridin-7-yl)-ethyl]-4-hydroxy-piperidine-4-carboxylic acid(8-fluoro-6-methoxy-quinolin-4-yl)-amide hydrochloride]
≤ 4 | COc1ccc2nccc(CCC3(O)CCN(CCc4ccc5c(c4)NC(=O)CS5)CC3)c2n1 [Example 28, 6-(2-{4-hydroxy-4-[2-(6-methoxy-[1,5]naphthyridin-4-yl)ethyl]piperidin-1yl}ethyl)-4H-benzo[1,4]thiazin-3-one]
≤ 4 | COc1ccc2nccc(NC(=O)C3(O)CCN(CC(O)c4ccc5c(c4)NC(=O)CS5)CC3)c2n1 (centres unmarked) [Example 9, 4-Hydroxy-1-[2-R,S-hydroxy-2-(3-oxo-3,4-dihydro-2H-benzo[1,4]thiazin-6-yl)-ethyl]-piperidine-4-carboxylic acid (6-methoxy-[1,5]naphthyridin-4-yl)amide oxalate]
≤ 16 | COc1ccc2nccc(N3CCC4(CCN(C[C@H](O)c5ccc6c(c5)NC(=O)CO6)CC4)C3=O)c2n1 [Example 7, 6-{1-R,S-Hydroxy-2-[2-(6-methoxy-[1,5]naphthyridin-4-yl)-1-oxo-2,8-diaza-spiro[4.5]dec-8-yl]-ethyl)4H-benzo[1,4]oxazin-3-one oxalate]
≤ 4 | COc1ccc2nccc(NC(=O)C3(O)CCN(CCc4cc5c(cn4)OCCO5)CC3)c2n1 [Example 25, 1-[2-(2,3-Dihydro-[1,4]dioxino[2,3-c]pyridin-7-yl)-ethyl]4-hydroxy-piperidine-4-carboxylic acid(6-methoxy-[1,5]naphthyridin-4-yl)-amide hydrochloride]
≤ 4 | COc1ccc2nccc(CCC3(O)CCN(C[C@H](O)c4ccc5c(c4)NC(=O)CS5)CC3)c2n1 (racemic) [Example 27, 6-((R,S)-1-Hydroxy-2-(4-hydroxy-4-[2-(6-methoxy-[1,5]naphthyridin-4-yl)ethyl]piperidin-1yl}ethyl)-4H-benzo[1,4]thiazin-3-one]
≤ 4 | COc1ccc2nccc(NC(=O)[C@@]3(O)CCN(CCc4ccc5c(c4)NC(=O)CS5)C[C@@H]3O)c2n1 (racemic) [Example 18, (3S/R,4R/S)-3,4-Dihydroxy-1-[2-(3-oxo-3,4-dihydro-2H-benzo[1,4]thiazin-6-yl)-ethyl]-piperidine-4-carboxylic acid (6-methoxy-[1,5]naphthyridin-4-yl)amide dihydrochloride]
≤ 4 | COc1ccc2nccc(NC(=O)C3(N)CCN(CC(O)c4ccc5c(c4)NC(=O)CS5)CC3)c2n1 (centres unmarked) [Example 12, 4-Amino-1-[2-R,S-hydroxy-2-(3-oxo-3,4-dihydro-2H-benzo[1,4]thiazin-6-yl)-ethyl]-piperidine-4-carboxylic acid (6-methoxy-[1,5]naphthyridinyl)-amide dihydrochloride]
≤ 16 | COc1ccc2nccc(NC(=O)C3(C(N)=O)CCN(C[C@@H](O)c4ccc5c(c4)OCCO5)CC3)c2n1 [Example 21, 1-[2-(2,3-Dihydro-benzo[1,4]dioxin-6-yl)-2-R,S-hydroxy-ethyl]-piperidine-4,4-dicarboxylic acid amide (6-methoxy-[1,5]naphthyridin-4-yl)-amide dihydrochloride]

Same assay, conditions: bound holds only for some of the 11 organisms of the panel; read-out: MIC versus some of these organisms

MIC [µg/mL] | SMILES
≤ 64 | COc1ccc2nccc(NC(=O)[C@@]3(O)CCN(CCc4ccc5c(c4)NC(=O)CS5)C[C@@H]3OC)c2n1 [Example 19, 4-R/S-Hydroxy-3-S/R-methoxy-1-[2-(3-oxo-3,4-dihydro-2H-benzo[1,4]thiazin-6-yl)-ethyl]-piperidine-4-carboxylic acid (6-methoxy-[1,5]naphthyridinyl)-amide dihydrochloride]
≤ 64 | COc1ccc2nccc(NC(=O)C3(C(=O)O)CCN(CCc4ccc5c(c4)NC(=O)CS5)CC3)c2n1 [Example 6, 4-(6-Methoxy-[1,5]naphthyridin-4-ylcarbamoyl)-1-[2-(3-oxo-3,4-dihydro-2H-benzo[1,4]thiazin-6-yl)-ethyl]-piperidine-4-carboxylic acid]

Same assay, conditions: read-out: MIC versus all these organisms

SMILES | MIC [µg/mL]
COc1ccc2nccc(NC(=O)C3(C#N)CCN(CCc4ccc5c(c4)NC(=O)CS5)CC3)c2n1.Cl.Cl [Example 20, 4-Cyano-1-[2-(3-oxo-3,4-dihydro-2H-benzo[1,4]thiazin-6-yl)-ethyl]-piperidine-4-carboxylic acid (6-methoxy-[1,5]naphthyridin-4-yl)-amide dihydrochloride] | ≤ 64
COc1ccc2nccc(NC(=O)C3(O)CCN(CC(O)c4ccc5c(c4)OCCO5)CC3)c2n1 (racemic) [Example 13, 1-[2-(2,3-Dihydro-benzo[1,4]dioxin-6-yl)-2-(R,S)-hydroxy-ethyl]-4-hydroxy-piperidine-4-carboxylic acid (6-methoxy-[1,5]naphthyridin-4-yl)-amide dihydrochloride] | ≤ 16
COc1ccc2nccc(NC(=O)C3(O)CCN(CCc4ccc5c(c4)NC(=O)CS5)CC3)c2n1 [Example 5, 4-Hydroxy-1-[2-(3-oxo-3,4-dihydro-2H-benzo[1,4]thiazin-6-yl)-ethyl]-piperidine-4-carboxylic acid (6-methoxy-[1,5]naphthyridin-4-yl)-amide oxalate] | ≤ 64
COc1ccc2nccc(NC(=O)C3(O)CCN(CCc4ccc5c(c4)OCO5)CC3)c2n1 [Example 3, 1-(2-Benzo[1,3]dioxol-5-yl-ethyl)-4-hydroxy-piperidine-4-carboxylic acid (6-methoxy-[1,5]naphthyridin-4yl)amide oxalate] | ≤ 16
COc1ccc2nccc(NC(=O)C3(CO)CCN(CCc4ccc5c(c4)NC(=O)CS5)CC3)c2n1 [Example 10, 4-Hydroxymethyl-1-[2-(3-oxo-3,4-dihydro-2H-benzo[1,4]thiazin-6-yl)-ethyl]-piperidine-4-carboxylic acid (6-methoxy-[1,5]naphthyridin-4-yl)-amide oxalate] | ≤ 4
COc1ccc2nccc(NC(=O)C3(O)CCN(CCc4cc5c(nn4)SCC(=O)N5)CC3)c2n1 [Example 14, 4-Hydroxy-1-[2-(6-oxo-6,7-dihydro-5H-pyridazino[3,4-b][1,4]thiazin-3-yl)-ethyl]-piperidine-4-carboxylic acid (6-methoxy-[1,5]naphthyridin-4-yl)-amide dihydrochloride] | ≤ 4
COc1ccc2nccc(NC(=O)C3(C)CCN(CCc4ccc5c(c4)NC(=O)CS5)CC3)c2n1 [Example 1, 4-Methyl-1-[2-(3-oxo-3,4-dihydro-2H-benzo[1,4]thiazin-6-yl)-ethyl]-piperidine-4-carboxylic acid (6-methoxy-[1,5]naphthyridin-4-yl)amide oxalate] | ≤ 4
COc1ccc2nccc(NC(=O)C3(N)CCN(CCc4ccc5c(c4)NC(=O)CS5)CC3)c2n1 [Example 2, 4-Amino-1-[2-(3-oxo-3,4-dihydro-2H-benzo[1,4]thiazin-6-yl)-ethyl]-piperidine-4-carboxylic acid (6-methoxy-[1,5]naphthyridin-4-yl)amide dioxalate] | ≤ 4
COc1ccc2nccc(NC(=O)C3(O)CCN(CC(=O)c4ccc5c(c4)NC(=O)CS5)CC3)c2n1 [Example 8, 4-Hydroxy-1-[2-oxo-2-(3-oxo-3,4-dihydro-2H-benzo[1,4]thiazin-6-yl)-ethyl]-piperidine-4-carboxylic acid (6-methoxy-[1,5]naphthyridin-4-yl)-amide oxalate] | ≤ 64
COc1ccc2nccc(NC(=O)C3(C)CCN(CCc4ccc5c(c4)OCO5)CC3)c2n1 [Example 4, 1-(2-Benzo[1,3]dioxol-5-yl-ethyl)4-methylpiperidine-4-carboxylic acid (6-methoxy-[1,5]naphthyridin-4-yl)-amide oxalate] | ≤ 16
